Type in all cases: cell-based, human
The subject of assay [1] is HCT116-DoxR cells. The assay can be described thus: Cell cycle progression analysis (PI, flow cytometry). To be noted: complexes at IC50, Dox 6 μM, Cis 5 μM; 9, 12, 18, 24 h after double thymidine block. From the text: It is important to note that exposure to increased levels of ROS can trigger genotoxic stress, an effect often associated with chemotherapy and that may promote cell cycle arrest.[84] The cell cycle comprises a sequential set of cellular events such as checkpoints that regulate transitions between different phases when cells are under stress conditions. Indeed, if DNA damage occurs, interphase checkpoints can trigger cell cycle arrest, repair, and induction of apoptosis or senescence.[85] Indeed, data in Table 7 show some degree of accumulation of both complexes in the nucleus, which may expose the genomic DNA to their action. […] This DNA intercalating fluorophore allows the analysis of DNA content in various phases of the cell cycle (G0/G1, S, and G2/M) (the fluorescence intensity emitted by PI doubles with the duplication of DNA quantity in the G1 and G2 phases),[86] and its detection can be performed by flow cytometry. […] To ensure that all cells were in the same phase of the cell cycle (S phase) when exposed to the Cu(II) complexes and controls, a double thymidine block was applied.[83]
HCT116-DoxR cells were cultured in six-well plates at a density of 1 × 10^5 cells/mL and incubated at 37 °C, 5% (v/v) CO2, and 99% (v/v) relative humidity for 8 h. To ensure that cells were in the same phase of the cell cycle, they were subjected to a double thymidine block for synchronization. At the end of the incubation, the culture medium was replaced with 2 mM thymidine in complete medium, and cells were incubated for 16 h. After incubation, the thymidine-containing medium was replaced with a thymidine-free complete medium, and cells were incubated for an additional 8 h. After this time, a second thymidine block was applied, as described earlier. At the end of the incubation, the thymidine-containing medium was replaced with a fresh medium containing the cooper complexes at their IC50 concentration. A 0.1% (v/v) DMSO solution was used as vehicle control, while 6 μM Dox, and 5 μM Cis were used as positive controls. Cells were incubated again for 9, 12, 18, and 24 h. Immediately after exposure (0 h) and at the end of each incubation period, the medium was removed, cells detached with TrypLE Express, and centrifuged for 5 min at 650 × g, at 4 °C. The pellet was resuspended in cold PBS 1× and centrifuged at 3000 × g for 5 min, at 4 °C. Later, the pellet was resuspended in cold PBS 1×, and 1 mL of 80% (v/v) cold ethanol was added dropwise to each tube. […] The DNA content was evaluated on an Attune acoustic focusing flow cytometer (Life Technologies, Carlsbad, USA), and the results were analyzed by the respective software (Attune Cytometric software).
A general note: In flow cytometry, cells or beads pass a laser one at a time.

For assay [2], the system named is primary dermal fibroblasts. Put plainly: Cell migration (wound healing) assay. To be noted: 24 h; complexes at IC50, Dox 6 μM; DMSO control 100%. Here is the method: Cellular migration is the individual movement of cells from one location to another.[96] This migratory process is an integral part of both the metastatic process and wound healing.[54] […] The in vitro wound healing assay is highly used to understand how the complexes affect cellular migration by measuring the closure of a gap previously created in the cell culture plate. […] Additionally, cells were subjected to the vehicle control of 0.1% DMSO and the positive control of Dox (6 μM), and the percentage of remission/regeneration was calculated (Figure 18).
Fibroblasts were seeded in 24-well plates at a cell density of 4 × 10^5 cells/mL. The plates were incubated for 24 h under the same conditions described before until a confluent cell monolayer was obtained. […] The cells were incubated at 37 °C for 48 h. The plates were photographed under an inverted microscope (Nikon TMS, Nikon Instruments, Tokyo, Japan) at 4× magnification (immediately after exposure to the complexes (0 h), 24, and 48 h following exposure).

Assay [3] has as its system HCT116-DoxR cells. Put plainly: ROS production (H2DCF-DA, flow cytometry). Particulars: 48 h; complexes at IC50, Dox 6 μM, Cis 5 μM. From the text:
The literature widely describes the relationship between the induction of these types of programmed cell death and the production of reactive oxygen species (ROS).[79]−[81] ROS can arise from endogenous or exogenous sources and play a role in carcinogenesis and tumor development, causing DNA damage.[81],[82] The accumulation of high ROS levels results in oxidative stress in cancer cells, a condition that can be exploited by surpassing the intrinsic antioxidant capacity of tumor cells as a targeted therapeutic approach.[75] It is known that Cu(II) complexes induce ROS production.[38] In this regard, the production of reactive oxygen species was quantified in HCT116-DoxR cells using the 2′,7′-dichlorodihydrofluorescein diacetate (H2DCF-DA) probe, which is rapidly oxidized in the presence of ROS, generating the compound 2′,7′-dichlorodihydrofluorescein (DCF), whose fluorescence can be detected by flow cytometry.[71] The fluorescence intensity is directly proportional to the amount of intracellular ROS. […] TBHP is a widely used organic peroxide in oxidative stress studies as it activates caspase-mediated apoptosis and ROS production.[83]
The quantification of reactive oxygen species (ROS) production was performed using the probe dichlorofluorescein diacetate (H2DCF-DA) (molecular probes: reactive oxygen species (ROS) detection reagents, Invitrogen, USA). Briefly, HCT116-DoxR cells were seeded in six-well plates at a density of 1 × 10^5 cells/mL and incubated for 24 h under the conditions mentioned before. After the incubation period, the medium was replaced with fresh medium containing the tested copper complexes at their IC50 concentrations. 0.1% (v/v) DMSO solution was used as the negative control, and 6 μM Dox, 5 μM Cis, and 42 μM Tertbutyl Hydroperoxide (TBHP) were used as positive controls. The cells were incubated again under the same conditions mentioned above for 48 h. Later, the culture medium was removed, cells were washed with PBS 1× and TrypLE Express to detach them and then they were washed again with PBS 1×. After that, cells were incubated in a solution of 10 μM H2DCF-DA in PBS 1x for 20 min at 37 °C. Subsequently, the samples were analyzed by the Attune Acoustic Focusing Flow Cytometer (Life Technologies, Carlsbad, USA), and the obtained data were processed by the respective software (Attune Cytometric software).

The record followed here is paper PMC11571215, “Optimization of Antiproliferative Properties of Triimine Copper(II) Complexes” (Journal of Medicinal Chemistry, 2024).

`COc1cccc2c1C(=O)c1c(O)c3c(c(O)c1C2=O)C[C@@](O)(C(=O)CO)C[C@@H]3O[C@H]1C[C@H](N)[C@H](O)[C@H](C)O1` [Doxorubicin]: in the assay with HCT116-DoxR cells [1], the “effect on cell cycle progression” value was “did not affect the cell cycle progression or cause an arrest”. Besides, the “percentage of remission/regeneration of the wound” value in assay [2] is on record as 68%. For the same compound, the “ROS production higher than DMSO control” value in the assay with HCT116-DoxR cells [3] is 1.8 ×.
Take `N.N.[Cl][Pt][Cl]` [Cisplatin]: the “effect on cell cycle progression” value in the assay with HCT116-DoxR cells [1] is recorded as “has a cytostatic effect in G2/M after incubation for 24 h”. Besides, the “ROS production higher than DMSO control” value with HCT116-DoxR cells [3] turned out to be 2.2 ×.
`[Cl][Cu-3]12([Cl])[n+]3ccccc3-c3cc(-c4ccc5ccccc5c4)cc([n+]31)-c1cccc[n+]12` [Cu1b]: the “effect on cell cycle progression” value in the assay on HCT116-DoxR cells [1] was “a delay in the cell cycle at the S phase after 9 h, in the G2/M after 12 h of incubation, and a delay in the cell cycle at G0/G1 at 18 h”. In assay [2], the “percentage of remission/regeneration of the wound” value is reported as 69%. Moreover, the “ROS production higher than DMSO control” value with HCT116-DoxR cells [3] is given as 1.48 ×.
For the compound `[Cl][Cu-3]12([Cl])[n+]3ccccc3-c3cc(-c4cccc5ccccc45)cc([n+]31)-c1cccc[n+]12` [Cu1a], in the assay with HCT116-DoxR cells [1], the “effect on cell cycle progression” value is “a delay in the cell cycle at the S phase after 9 h, in the G2/M after 12 h of incubation, and a delay in the cell cycle at G0/G1 at 18 h”. For the same compound, in assay [2], the “percentage of remission/regeneration of the wound” value is “approximately 66%”. Moreover, the “ROS production higher than DMSO control” value in the assay on HCT116-DoxR cells [3] is given as 1.42 ×.
